The results in this text go back to the NIST ThermoML archive (doi:10.1016/j.fluid.2010.03.010).

Numbers after ± are expanded uncertainties.

One data set can be described thus: molar heat capacity at constant pressure. The following applies: 308.16 K; 101.33 kPa; Liquid; Differential Scanning Calorimetry. In general terms: DSC measures the heat that a sample takes up or gives off during a temperature scan.
In the case of `CCCC[n+]1ccn(C)c1.O=S(=O)([N-]S(=O)(=O)C(F)(F)F)C(F)(F)F`, the “molar heat capacity at constant pressure” value was found to be 573.13 ± 17 J/K/mol.

Take `CCCCn1cc[n+](C)c1.N#CN=C=[N-]` [1-butyl-3-methylimidazolium dicyanamide]: the “molar heat capacity at constant pressure” value is listed as 381.78 ± 11 J/K/mol.

For the compound `CCOS(=O)(=O)[O-].CCn1cc[n+](C)c1` [1-ethyl-3-methylimidazolium ethyl sulfate], the “molar heat capacity at constant pressure” value stood at 393.42 ± 12 J/K/mol.

Staying with this data set, now noted: 313.16 K; 101.33 kPa; Liquid; Differential Scanning Calorimetry.
`CCCC[n+]1ccn(C)c1.O=S(=O)([N-]S(=O)(=O)C(F)(F)F)C(F)(F)F`: the “molar heat capacity at constant pressure” value was 575.92 ± 17 J/K/mol.

As for `CCCCn1cc[n+](C)c1.N#CN=C=[N-]` [1-butyl-3-methylimidazolium dicyanamide], the “molar heat capacity at constant pressure” value is on record as 384.86 ± 12 J/K/mol.

In the case of `CCOS(=O)(=O)[O-].CCn1cc[n+](C)c1` [1-ethyl-3-methylimidazolium ethyl sulfate], the “molar heat capacity at constant pressure” value is recorded as 396.97 ± 12 J/K/mol.

Staying with this data set, now noted: 318.16 K; 101.33 kPa; Liquid; Differential Scanning Calorimetry.
As to `CCCC[n+]1ccn(C)c1.O=S(=O)([N-]S(=O)(=O)C(F)(F)F)C(F)(F)F`, the “molar heat capacity at constant pressure” value worked out at 577.32 ± 17 J/K/mol.

In the case of `CCCCn1cc[n+](C)c1.N#CN=C=[N-]` [1-butyl-3-methylimidazolium dicyanamide], the “molar heat capacity at constant pressure” value amounted to 382.81 ± 11 J/K/mol.

In the case of `CCOS(=O)(=O)[O-].CCn1cc[n+](C)c1` [1-ethyl-3-methylimidazolium ethyl sulfate], the “molar heat capacity at constant pressure” value is 399.33 ± 12 J/K/mol.

Still in this data set, the particulars now being: 323.16 K; 101.33 kPa; Liquid; Differential Scanning Calorimetry.
`CCCC[n+]1ccn(C)c1.O=S(=O)([N-]S(=O)(=O)C(F)(F)F)C(F)(F)F`: the “molar heat capacity at constant pressure” value turned out to be 581.51 ± 17 J/K/mol.

Turning to `CCCCn1cc[n+](C)c1.N#CN=C=[N-]` [1-butyl-3-methylimidazolium dicyanamide], the “molar heat capacity at constant pressure” value was determined as 386.92 ± 12 J/K/mol.

In the case of `CCOS(=O)(=O)[O-].CCn1cc[n+](C)c1` [1-ethyl-3-methylimidazolium ethyl sulfate], the “molar heat capacity at constant pressure” value is 402.06 ± 12 J/K/mol.

Still in this data set, the particulars now being: 328.22 K; 101.33 kPa; Liquid; Differential Scanning Calorimetry.
With `CCCC[n+]1ccn(C)c1.O=S(=O)([N-]S(=O)(=O)C(F)(F)F)C(F)(F)F`, the “molar heat capacity at constant pressure” value was 584.31 ± 18 J/K/mol.

Take `CCCCn1cc[n+](C)c1.N#CN=C=[N-]` [1-butyl-3-methylimidazolium dicyanamide]: the “molar heat capacity at constant pressure” value was 386.92 ± 12 J/K/mol.

As for `CCOS(=O)(=O)[O-].CCn1cc[n+](C)c1` [1-ethyl-3-methylimidazolium ethyl sulfate], the “molar heat capacity at constant pressure” value came to 405.24 ± 12 J/K/mol.

The same data set, now with this note: 333.22 K; 101.33 kPa; Liquid; Differential Scanning Calorimetry.
Take `CCCC[n+]1ccn(C)c1.O=S(=O)([N-]S(=O)(=O)C(F)(F)F)C(F)(F)F`: the “molar heat capacity at constant pressure” value is 588.5 ± 18 J/K/mol.

On to `CCCCn1cc[n+](C)c1.N#CN=C=[N-]` [1-butyl-3-methylimidazolium dicyanamide], for which the “molar heat capacity at constant pressure” value is on record as 388.97 ± 12 J/K/mol.

For the compound `CCOS(=O)(=O)[O-].CCn1cc[n+](C)c1` [1-ethyl-3-methylimidazolium ethyl sulfate], the “molar heat capacity at constant pressure” value turned out to be 406.42 ± 12 J/K/mol.

Staying with this data set, now noted: 338.19 K; 101.33 kPa; Liquid; Differential Scanning Calorimetry.
As to `CCCC[n+]1ccn(C)c1.O=S(=O)([N-]S(=O)(=O)C(F)(F)F)C(F)(F)F`, the “molar heat capacity at constant pressure” value is reported as 588.5 ± 18 J/K/mol.

In the case of `CCCCn1cc[n+](C)c1.N#CN=C=[N-]` [1-butyl-3-methylimidazolium dicyanamide], the “molar heat capacity at constant pressure” value worked out at 391.02 ± 12 J/K/mol.

As for `CCOS(=O)(=O)[O-].CCn1cc[n+](C)c1` [1-ethyl-3-methylimidazolium ethyl sulfate], the “molar heat capacity at constant pressure” value is 408.78 ± 12 J/K/mol.

Still in this data set, the particulars now being: 343.18 K; 101.33 kPa; Liquid; Differential Scanning Calorimetry.
Regarding `CCCC[n+]1ccn(C)c1.O=S(=O)([N-]S(=O)(=O)C(F)(F)F)C(F)(F)F`, the “molar heat capacity at constant pressure” value is listed as 592.7 ± 18 J/K/mol.

Take `CCCCn1cc[n+](C)c1.N#CN=C=[N-]` [1-butyl-3-methylimidazolium dicyanamide]: the “molar heat capacity at constant pressure” value turned out to be 392.05 ± 12 J/K/mol.

Regarding `CCOS(=O)(=O)[O-].CCn1cc[n+](C)c1` [1-ethyl-3-methylimidazolium ethyl sulfate], the “molar heat capacity at constant pressure” value is 411.14 ± 12 J/K/mol.

The same data set, now with this note: 348.25 K; 101.33 kPa; Liquid; Differential Scanning Calorimetry.
In the case of `CCCC[n+]1ccn(C)c1.O=S(=O)([N-]S(=O)(=O)C(F)(F)F)C(F)(F)F`, the “molar heat capacity at constant pressure” value stood at 595.49 ± 18 J/K/mol.

In the case of `CCCCn1cc[n+](C)c1.N#CN=C=[N-]` [1-butyl-3-methylimidazolium dicyanamide], the “molar heat capacity at constant pressure” value came out at 394.1 ± 12 J/K/mol.

For `CCOS(=O)(=O)[O-].CCn1cc[n+](C)c1` [1-ethyl-3-methylimidazolium ethyl sulfate], the “molar heat capacity at constant pressure” value is recorded as 414.69 ± 12 J/K/mol.

Still in this data set, the particulars now being: 353.18 K; 101.33 kPa; Liquid; Differential Scanning Calorimetry.
Regarding `CCCC[n+]1ccn(C)c1.O=S(=O)([N-]S(=O)(=O)C(F)(F)F)C(F)(F)F`, the “molar heat capacity at constant pressure” value was found to be 596.89 ± 18 J/K/mol.

For the compound `CCCCn1cc[n+](C)c1.N#CN=C=[N-]` [1-butyl-3-methylimidazolium dicyanamide], the “molar heat capacity at constant pressure” value was determined as 395.13 ± 12 J/K/mol.

Take `CCOS(=O)(=O)[O-].CCn1cc[n+](C)c1` [1-ethyl-3-methylimidazolium ethyl sulfate]: the “molar heat capacity at constant pressure” value turned out to be 415.87 ± 12 J/K/mol.

The data set is the same for the next values; noted with them: 358.25 K; 101.33 kPa; Liquid; Differential Scanning Calorimetry.
Take `CCCC[n+]1ccn(C)c1.O=S(=O)([N-]S(=O)(=O)C(F)(F)F)C(F)(F)F`: the “molar heat capacity at constant pressure” value is 599.68 ± 18 J/K/mol.

With `CCCCn1cc[n+](C)c1.N#CN=C=[N-]` [1-butyl-3-methylimidazolium dicyanamide], the “molar heat capacity at constant pressure” value amounted to 396.15 ± 12 J/K/mol.

Consider `CCOS(=O)(=O)[O-].CCn1cc[n+](C)c1` [1-ethyl-3-methylimidazolium ethyl sulfate], for which the “molar heat capacity at constant pressure” value turned out to be 418.23 ± 13 J/K/mol.

Staying with this data set, now noted: 363.18 K; 101.33 kPa; Liquid; Differential Scanning Calorimetry.
Take `CCCC[n+]1ccn(C)c1.O=S(=O)([N-]S(=O)(=O)C(F)(F)F)C(F)(F)F`: the “molar heat capacity at constant pressure” value was found to be 602.48 ± 18 J/K/mol.

Take `CCCCn1cc[n+](C)c1.N#CN=C=[N-]` [1-butyl-3-methylimidazolium dicyanamide]: the “molar heat capacity at constant pressure” value is on record as 399.23 ± 12 J/K/mol.

For the compound `CCOS(=O)(=O)[O-].CCn1cc[n+](C)c1` [1-ethyl-3-methylimidazolium ethyl sulfate], the “molar heat capacity at constant pressure” value worked out at 420.6 ± 13 J/K/mol.
